Converted amounts (≈) assume the structure as drawn. Where two headings read alike, the source gives them in different places. Positions of bridges follow the written chain, without caps; N, C: chain ends. Non-standard residues stand in square brackets, D forms with d. Residues, ends and D or L forms follow the SMILES beside them. *: point of attachment. Decanoyl(3R-OH) = CCCCCCC[C@@H](O)CC(=O)*; dBip = N[C@H](Cc1ccc(-c2ccccc2)cc1)C(=O)O; dDab = NCC[C@@H](N)C(=O)O; Dab = NCC[C@H](N)C(=O)O; Dap = NC[C@H](N)C(=O)O
Assays:
in vitro = conditions: human
How it was run: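 HK2 cells were seeded at 2000 per well in DMEM/F12 with 10% FBS and left to attach for 24 h at 37 °C, 5% CO2. They were then exposed for 24 h to 3-fold peptide dilutions starting from 600 μM solutions in quadruplicate. LDH release was read at 450 nm, and CC50 was fitted from dose-response curves.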

[1] = system: K. pneumoniae GN_102 PmxR
How it was run: (§1)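 Mid-log cultures grown in Mueller Hinton broth at 37° C were tested by 2-fold broth microdilution at 5×10^5 CFU/mL final. Compounds were dissolved in water and tested over a final range of 32 to 0.015 μg/mL.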

[2] = system: K. pneumoniae ATCC BAA-2146, NDM-1 pos
How it was run: as §1

A. baumannii GN_093 PmxR = system: A. baumannii GN_093 PmxR
How it was run: as §1

E. coli ATCC 25922 = system: E. coli ATCC 25922
How it was run: as §1

[3] = system: P. aeruginosa GN_043, PmxR
How it was run: as §1

[4] = system: S. aureus ATCC 25923, MSSA
How it was run: as §1

A. baumannii ATCC 19606 = system: A. baumannii ATCC 19606
How it was run: as §1

[5] = system: P. aeruginosa GN_105, PmxR
How it was run: as §1

K. pneumoniae ATCC 13883 = system: K. pneumoniae ATCC 13883
How it was run: as §1

[6] = system: K. pneumoniae GN_106, PmxR
How it was run: as §1

P. aeruginosa ATCC 27853 = system: P. aeruginosa ATCC 27853
How it was run: as §1

[7] = system: K. pneumoniae ATCC 700603, MDR
How it was run: as §1

SMILES	CC50 at 24 h (in vitro) [µM]	MIC K. pneumoniae GN_102 PmxR ([1]; GN 102 PmxR) [µg/mL]	MIC K. pneumoniae ATCC BAA-2146, NDM-1 pos ([2]; ATCC BAA-2146) [µg/mL]	MIC A. baumannii GN_093 PmxR (A. baumannii GN_093 PmxR; GN 093 PmxR) [µg/mL]	MIC E. coli ATCC 25922 (E. coli ATCC 25922; ATCC 25922) [µg/mL]	MIC P. aeruginosa GN_043, PmxR ([3]; P. aeruginosa GN_043, PmxR) [µg/mL]	MIC S. aureus ATCC 25923, MSSA ([4]; ATCC 25923) [µg/mL]	MIC A. baumannii ATCC 19606 (A. baumannii ATCC 19606; ATCC 19606) [µg/mL]	MIC P. aeruginosa GN_105, PmxR ([5]; GN 105, PmxR) [µg/mL]	MIC K. pneumoniae ATCC 13883 (K. pneumoniae ATCC 13883; ATCC 13883) [µg/mL]	MIC K. pneumoniae GN_106, PmxR ([6]; GN 106, PmxR) [µg/mL]	MIC P. aeruginosa ATCC 27853 (P. aeruginosa ATCC 27853; ATCC 27853) [µg/mL]	MIC K. pneumoniae ATCC 700603, MDR ([7]; ATCC 700603) [µg/mL]	MIC P. aeruginosa GN_043, PmxR ([3]; polymyxin-resistant) [µg/mL]	also measured
CCCCCCC[C@@H](O)CC(=O)N[C@H](CCN)C(=O)N[C@H]1CCNC(=O)[C@H](CC(C)C)NC(=O)[C@H](CCN)NC(=O)[C@H](CCN)NC(=O)[C@H](CC(C)C)NC(=O)[C@@H](Cc2ccc(-c3ccccc3)cc2)NC(=O)[C@H](CCN)NC1=O [compound 5010, 3(R)OH-nC9CO-D-Dab-cyc[L-Dab-L-Dab-D-Bip-L-Leu-L-Dab-L-Dab-L-Leu]] ({Decanoyl(3R-OH)}-[dDab][Dab][Dab][dBip]L[Dab][Dab]L; lactam 2-C)	75	4 (≈ 3.57 µM)	4 (≈ 3.57 µM)	4 (≈ 3.57 µM)	2 (≈ 1.78 µM)	2 (≈ 1.78 µM)	2 (≈ 1.78 µM)	4 (≈ 3.57 µM)	2 (≈ 1.78 µM)	2 (≈ 1.78 µM)	2 (≈ 1.78 µM)	4 (≈ 3.57 µM)	4 (≈ 3.57 µM)	–	–
CCCCCCC[C@@H](O)CC(=O)N[C@H](CCN)C(=O)N[C@H]1CCNC(=O)[C@H](Cc2ccccc2)NC(=O)[C@H](CN)NC(=O)[C@H](CCN)NC(=O)[C@H](CC(C)C)NC(=O)[C@@H](Cc2ccc(-c3ccccc3)cc2)NC(=O)[C@H](CCN)NC1=O [compound 5384, 3(R)OH-nC9CO-D-Dab-cyc[L-Dab-L-Dab-D-Bip-L-Leu-L-Dab-L-Dap-L-Phe]] ({Decanoyl(3R-OH)}-[dDab][Dab][Dab][dBip]L[Dab][Dap]F; lactam 2-C)	24	16 (≈ 14 µM)	4 (≈ 3.51 µM)	4 (≈ 3.51 µM)	4 (≈ 3.51 µM)	–	4 (≈ 3.51 µM)	8 (≈ 7.01 µM)	4 (≈ 3.51 µM)	4 (≈ 3.51 µM)	8 (≈ 7.01 µM)	4 (≈ 3.51 µM)	8 (≈ 7.01 µM)	4 (≈ 3.51 µM)	–
CCCCCCC[C@@H](O)CC(=O)N[C@H](CCN)C(=O)N[C@H]1CCNC(=O)[C@H](Cc2ccccc2)NC(=O)[C@H](CN)NC(=O)[C@H](CCN)NC(=O)[C@H](CC(C)C)NC(=O)[C@@H](Cc2ccccc2)NC(=O)[C@H](CCN)NC1=O [compound 5385, 3(R)OH-nC9CO-D-Dab-cyc[L-Dab-L-Dab-D-Phe-L-Leu-L-Dab-L-Dap-L-Phe]] ({Decanoyl(3R-OH)}-[dDab][Dab][Dab][dF]L[Dab][Dap]F; lactam 2-C)	41	8 (≈ 7.52 µM)	4 (≈ 3.76 µM)	16 (≈ 15 µM)	4 (≈ 3.76 µM)	–	8 (≈ 7.52 µM)	8 (≈ 7.52 µM)	2 (≈ 1.88 µM)	4 (≈ 3.76 µM)	16 (≈ 15 µM)	2 (≈ 1.88 µM)	8 (≈ 7.52 µM)	2 (≈ 1.88 µM)	–
CCCCCCC[C@@H](O)CC(=O)N[C@H](CCN)C(=O)N[C@H]1CCNC(=O)[C@H]([C@@H](C)O)NC(=O)[C@H](CN)NC(=O)[C@H](CCN)NC(=O)[C@H](CC(C)C)NC(=O)[C@@H](Cc2ccccc2)NC(=O)[C@H](CCN)NC1=O [compound 5386, 3(R)OH-nC9CO-D-Dab-cyc[L-Dab-L-Dab-D-Phe-L-Leu-L-Dab-L-Dap-L-Thr]] ({Decanoyl(3R-OH)}-[dDab][Dab][Dab][dF]L[Dab][Dap]T; lactam 2-C)	154	–	–	–	–	1 (≈ 0.982 µM)	–	–	–	–	–	–	–	–	MIC K. pneumoniae GN_102 PmxR ([1]; K. pneumoniae GN_102 PmxR): 32 µg/mL (≈ 31.4 µM); MIC K. pneumoniae ATCC BAA-2146, NDM-1 pos ([2]; K. pneumoniae ATCC BAA-2146, NDM-1 pos): 4 µg/mL (≈ 3.93 µM); MIC A. baumannii GN_093 PmxR (A. baumannii GN_093 PmxR; A. baumannii GN_093 PmxR): >32 µg/mL; MIC E. coli ATCC 25922 (E. coli ATCC 25922; E. coli ATCC 25922): 2 µg/mL (≈ 1.96 µM); MIC S. aureus ATCC 25923, MSSA ([4]; S. aureus ATCC 25923, MSSA): >32 µg/mL; MIC A. baumannii ATCC 19606 (A. baumannii ATCC 19606; A. baumannii ATCC 19606): >32 µg/mL; MIC P. aeruginosa GN_105, PmxR ([5]; P. aeruginosa GN_105, PmxR): 4 µg/mL (≈ 3.93 µM); MIC K. pneumoniae ATCC 13883 (K. pneumoniae ATCC 13883; K. pneumoniae ATCC 13883): 16 µg/mL (≈ 15.7 µM); MIC K. pneumoniae GN_106, PmxR ([6]; K. pneumoniae GN_106, PmxR): >32 µg/mL; MIC P. aeruginosa ATCC 27853 (P. aeruginosa ATCC 27853; P. aeruginosa ATCC 27853): 4 µg/mL (≈ 3.93 µM); MIC K. pneumoniae ATCC 700603, MDR ([7]; K. pneumoniae ATCC 700603, MDR): 2 µg/mL (≈ 1.96 µM)
CCCCCCC[C@@H](O)CC(=O)N[C@H](CCN)C(=O)N[C@H]1CCNC(=O)[C@H]([C@@H](C)O)NC(=O)[C@H](CCN)NC(=O)[C@H](CCN)NC(=O)[C@H](CC(C)C)NC(=O)[C@@H](Cc2ccccc2)NC(=O)[C@H](CCN)NC1=O [compound 5387, 3(R)OH-nC9CO-D-Dab-cyc[L-Dab-L-Dab-D-Phe-L-Leu-L-Dab-L-Dab-L-Thr]] ({Decanoyl(3R-OH)}-[dDab][Dab][Dab][dF]L[Dab][Dab]T; lactam 2-C)	210	>32	1 (≈ 0.969 µM)	>32	2 (≈ 1.94 µM)	–	>32	8 (≈ 7.75 µM)	>32	2 (≈ 1.94 µM)	>32	1 (≈ 0.969 µM)	2 (≈ 1.94 µM)	2 (≈ 1.94 µM)	–
CCCCCCC[C@@H](O)CC(=O)N[C@H](CCN)C(=O)N[C@H]1CCNC(=O)[C@H]([C@@H](C)O)NC(=O)[C@H](CCNC(=O)[C@@H](N)CCCNC(=N)N)NC(=O)[C@H](CCN)NC(=O)[C@H](CC(C)C)NC(=O)[C@@H](Cc2ccccc2)NC(=O)[C@H](CCN)NC1=O [compound 5603, 3(R)OH-nC9CO-D-Dab-cyc[L-Dab-L-Dab-D-Phe-L-Leu-L-Dab-L-Dab(L-Arg)-L-Thr]] ({Decanoyl(3R-OH)}-[dDab][Dab][Dab][dF]L[Dab][Dab](Arg)T; lactam 2-C)	103	>32	>32	>32	32 (≈ 26.9 µM)	32 (≈ 26.9 µM)	>32	>32	32 (≈ 26.9 µM)	>32	>32	8 (≈ 6.73 µM)	16 (≈ 13.5 µM)	–	–

Source: US11279733B2, “Peptide antibiotics” (priority 2017, dated 2022)
